Results: the supplement of paper PMC4628005

Tests used:
Conditions in all cases: drug exposure time: 96 h
[1] = compound: O=C(/C=C/c1cccc(S(=O)(=O)Nc2ccccc2)c1)NO [Belinostat]
Protocol: (§1)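 Breast cancer cell lines were grown in RPMI 1640 with 10% FBS on collagen I-coated 96-well plates and treated for 96 h (from 24 h after seeding) with 12 dilutions per drug, in triplicate. Growth was read by sulforhodamine B total-protein staining (absorbance 570 nm) relative to diluent control, and IC50 was calculated. The top dose was 1e-5 M for most drugs; Bortezomib went to 2e-5 M and Sirolimus and 17-AAG to 2e-6 M[…].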

[2] = compound: C#Cc1cccc(Nc2ncnc3cc(OCCOC)c(OCCOC)cc23)c1 [Erlotinib]
Protocol: as §1

[3] = compound: CC/C(=C(\c1ccccc1)c1ccc(OCCN(C)C)cc1)c1ccccc1 [Tamoxifen]
Protocol: as §1

[4] = compound: CC(C)(C)C[C@H]1N[C@@H](C(=O)NCC[C@H](O)CO)[C@H](c2cccc(Cl)c2)[C@@]12C(=O)Nc1cc(Cl)c(F)cc12 [MI-219]
Protocol: as §1

[5] = compound: Nc1ncn([C@@H]2O[C@H](CO)[C@@H](O)[C@H]2O)c(=O)n1 [Azacitidine]
Protocol: as §1

[6] = compound: Cc1nc(Nc2ncc(C(=O)Nc3c(C)cccc3Cl)s2)cc(N2CCN(CCO)CC2)n1 [Dasatinib]
Protocol: as §1

[7] = compound: COc1cc2ncnc(Nc3ccc(F)c(Cl)c3)c2cc1OCCCN1CCOCC1 [Gefitinib]
Protocol: as §1

[8] = compound: COc1ccc(C2=N[C@@H](c3ccc(Cl)cc3)[C@@H](c3ccc(Cl)cc3)N2C(=O)N2CCNC(=O)C2)c(OC(C)C)c1 [Nutlin-3]
Protocol: as §1

[9] = compound: CC(=O)O[C@H]1C(=O)[C@@]2(C)[C@H]([C@H](OC(=O)c3ccccc3)[C@]3(O)C[C@H](OC(=O)[C@H](O)[C@@H](NC(=O)c4ccccc4)c4ccccc4)C(C)=C1C3(C)C)[C@]1(OC(C)=O)CO[C@@H]1C[C@@H]2O [Paclitaxel]
Protocol: as §1

[10] = compound: CS(=O)(=O)CCNCc1ccc(-c2ccc3ncnc(Nc4ccc(OCc5cccc(F)c5)c(Cl)c4)c3c2)o1 [Lapatinib]
Protocol: as §1

[11] = compound: CN(Cc1cnc2nc(N)nc(N)c2n1)c1ccc(C(=O)N[C@@H](CCC(=O)O)C(=O)O)cc1 [Methotrexate]
Protocol: as §1

[12] = compound: CC(=O)O[C@@]12CO[C@@H]1C[C@H](O)[C@@]1(C)C(=O)[C@H](O)C3=C(C)[C@@H](OC(=O)[C@H](O)[C@@H](NC(=O)OC(C)(C)C)c4ccccc4)C[C@@](O)([C@@H](OC(=O)c4ccccc4)[C@H]21)C3(C)C [Docetaxel]
Protocol: as §1

[13] = compound: CCN(CC)CCNC(=O)c1c(C)[nH]c(/C=C2\C(=O)Nc3ccc(F)cc32)c1C [Sunitinib]
Protocol: as §1

[14] = compound: O=C(CCCCCCC(=O)Nc1ccccc1)NO [Vorinostat]
Protocol: as §1

[15] = compound: O=c1[nH]cc(F)c(=O)[nH]1 [5-Fluorouracil]
Protocol: as §1

[16] = compound: CNC(=O)c1cc(Oc2ccc(NC(=O)Nc3ccc(Cl)c(C(F)(F)F)c3)cc2)ccn1 [Sorafenib]
Protocol: as §1

[17] = compound: Nc1ncn([C@H]2C[C@H](O)[C@@H](CO)O2)c(=O)n1 [Decitabine]
Protocol: as §1

[18] = compound: Cn1cc(CNCC2CCN(c3ncc(C(=O)NO)cn3)CC2)c2ccccc21 [Quisinostat]
Protocol: as §1

[19] = compound: c1ccc2c(CCNc3ccc(Nc4ccncc4)cc3)c[nH]c2c1 [Serdemetan]
Protocol: as §1

[20] = compound: O=C1c2c(O)ccc(O)c2C(=O)c2c(NCCNCCO)ccc(NCCNCCO)c21 [Mitoxantrone]
Protocol: as §1

[21] = compound: COc1cc2/c(=N/c3ccc(Br)cc3F)nc[nH]c2cc1OCC1CCN(C)CC1 [Vandetanib]
Protocol: as §1

[22] = compound: Cc1[nH]c2ccccc2c1CCNCc1ccc(/C=C/C(=O)NO)cc1 [Panobinostat]
Protocol: as §1

[23] = compound: Cc1cc2c(F)c(Oc3ncnn4cc(OC[C@@H](C)O)c(C)c34)ccc2[nH]1 [Brivanib]
Protocol: as §1

[24] = compound: CO[C@H]1C[C@@H]2CC[C@@H](C)[C@@](O)(O2)C(=O)C(=O)N2CCCC[C@H]2C(=O)O[C@H]([C@H](C)C[C@@H]2CC[C@@H](O)[C@H](OC)C2)CC(=O)[C@H](C)/C=C(\C)[C@@H](O)[C@@H](OC)C(=O)[C@H](C)C[C@H](C)/C=C/C=C/C=C/1C [Sirolimus]
Protocol: (§2)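 Same SRB 96 h IC50 screen on breast cancer cell lines (RPMI 1640 + 10% FBS, collagen I-coated 96-well plates, triplicates, 12 dilutions), for drugs with a different dose range: Bortezomib up to 2e-5 M; Sirolimus and 17-AAG up to 2e-6 M. Sirolimus values at the 2e-6 M top dose are censored.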

[25] = compound: C=CCNC1=C2C[C@@H](C)C[C@H](OC)[C@H](O)[C@@H](C)/C=C(\C)[C@H](OC(N)=O)[C@@H](OC)/C=C\C=C(/C)C(=O)NC(=CC1=O)C2=O [17-AAG]
Protocol: as §2

[26] = compound: CC(C)C[C@H](NC(=O)[C@H](Cc1ccccc1)NC(=O)c1cnccn1)B(O)O [Bortezomib]
Protocol: as §2

[27] = compound: O=C1NC(=O)[C@@H](c2cn3c4c(cccc24)CCC3)[C@@H]1c1c[nH]c2ccccc12 [ARQ197]
Protocol: as §1

[28] = compound: N.N.[Cl][Pt][Cl] [Cisplatin]
Protocol: as §1

[29] = compound: Cn1cncc1[C@@](N)(c1ccc(Cl)cc1)c1ccc2c(c1)c(-c1cccc(Cl)c1)cc(=O)n2C [Tipifarnib]
Protocol: as §1

[30] = compound: COc1cccc2c1C(=O)c1c(O)c3c(c(O)c1C2=O)C[C@@](O)(C(=O)CO)C[C@@H]3O[C@H]1C[C@H](N)[C@H](O)[C@H](C)O1 [Doxorubicin]
Protocol: as §1

Test System | IC50 (SRB growth assay) [1] | IC50 (SRB growth assay) [2] | IC50 (SRB growth assay) [3] | IC50 (SRB growth assay) [4] | IC50 (SRB growth assay) [5] | IC50 (SRB growth assay) [6] | IC50 (SRB growth assay) [7] | IC50 (SRB growth assay) [8] | IC50 (SRB growth assay) [9] | IC50 (SRB growth assay) [10] | IC50 (SRB growth assay) [11] | IC50 (SRB growth assay) [12] | IC50 (SRB growth assay) [13] | IC50 (SRB growth assay) [14] | IC50 (SRB growth assay) [15] | IC50 (SRB growth assay) [16] | IC50 (SRB growth assay) [17] | IC50 (SRB growth assay) [18] | IC50 (SRB growth assay) [19] | IC50 (SRB growth assay) [20] | IC50 (SRB growth assay) [21] | IC50 (SRB growth assay) [22] | IC50 (SRB growth assay) [23] | IC50 (SRB growth assay) [24] | IC50 (SRB growth assay) [25] | IC50 (SRB growth assay) [26] | IC50 (SRB growth assay) [27] | IC50 (SRB growth assay) [28] | IC50 (SRB growth assay) [29] | IC50 (SRB growth assay) [30]
SUM 149 PT | 171 nM | 766 nM | 5210 nM | > 10000 nM | > 10000 nM | 70.6 nM | 2860 nM | > 10000 nM | 1.31 nM | 81 nM | 10.6 nM | 0.226 nM | 3430 nM | 515 nM | 7760 nM | 5590 nM | 81 nM | 6.79 nM | 608 nM | 1 nM | 877 nM | 8.96 nM | > 10000 nM | 10.7 nM | 17.7 nM | 5.35 nM | – | – | – | –
HCC 1954 | 142 nM | 361 nM | 5420 nM | > 10000 nM | 807 nM | 2290 nM | 435 nM | > 10000 nM | 1.37 nM | 182 nM | 10.2 nM | 0.37 nM | 5340 nM | 452 nM | 2490 nM | 5510 nM | 1650 nM | 7.36 nM | 1280 nM | 8.2 nM | 894 nM | 9.53 nM | 5340 nM | 0.0308 nM | 26.4 nM | 5.29 nM | 205 nM | > 10000 nM | 449 nM | 11.1 nM
HCC 1500 | 367 nM | 617 nM | > 10000 nM | 1070 nM | 2330 nM | 959 nM | 679 nM | 2670 nM | 3.44 nM | 529 nM | > 10000 nM | 0.745 nM | 8230 nM | 987 nM | 3930 nM | 6090 nM | 6210 nM | 9.34 nM | 1960 nM | 30.6 nM | 1280 nM | 12.8 nM | > 10000 nM | 0.274 nM | 905 nM | 5.55 nM | 197 nM | > 10000 nM | 1050 nM | 40.3 nM
SKBR 7 | 470 nM | > 10000 nM | 8320 nM | 3200 nM | > 10000 nM | > 10000 nM | > 10000 nM | 7530 nM | 1.07 nM | 2510 nM | 11.1 nM | 0.338 nM | 5350 nM | 918 nM | 1580 nM | 2400 nM | 2510 nM | 7.17 nM | 798 nM | 3.02 nM | 7760 nM | 15.9 nM | > 10000 nM | 0.886 nM | 74.1 nM | 24.6 nM | – | – | – | –
UACC 893 | 134 nM | 1490 nM | 5500 nM | > 10000 nM | > 10000 nM | 6910 nM | 1710 nM | > 10000 nM | 1.95 nM | > 10000 nM | 164 nM | 0.701 nM | 2300 nM | 487 nM | 8200 nM | 4460 nM | > 10000 nM | 4.25 nM | 2870 nM | 4.1 nM | 4360 nM | 5.26 nM | > 10000 nM | 0.072 nM | 18.2 nM | 3.92 nM | – | – | – | –
HCC 1937 | 572 nM | > 10000 nM | 5720 nM | > 10000 nM | > 10000 nM | 4730 nM | > 10000 nM | > 10000 nM | 4.02 nM | 1930 nM | 65.5 nM | 1.08 nM | 6000 nM | 1760 nM | 5280 nM | 6230 nM | 1930 nM | 43.9 nM | 1050 nM | 76.6 nM | 4060 nM | 42.1 nM | > 10000 nM | 5.98 nM | 26.7 nM | 5.14 nM | – | – | – | –
MDA-MB 231 | 410 nM | > 10000 nM | 9790 nM | > 10000 nM | > 10000 nM | 67.6 nM | > 10000 nM | > 10000 nM | 1.49 nM | 65.7 nM | 2.1 nM | 0.535 nM | 2520 nM | 1320 nM | 2580 nM | 4270 nM | 65.7 nM | 16.1 nM | 474 nM | 2.65 nM | 4800 nM | 15.5 nM | 6480 nM | 4.75 nM | 683 nM | 4.43 nM | – | – | – | –
